What was measured:
Pharmacokinetic studies = assay type: in vivo, mouse; conditions: ICR mice; for half-life: ICR
Description: Male ICR mice (18–20 g, n = 3 in each group) were randomly assigned to treatment groups. After 12-h of fasting, baseline blood was collected into a tube containing ethylenediaminetetraacetic acid (EDTA). Animals were then treated orally with compound A57 or APC (p.o.: 20 mg/kg, in DMSO/0.5% HPMC 5/95, v/v) and intravenous injected the selected compounds (i.v.: 2 mg/kg, in DMSO/EtOH/PEG300/NaCl 5/5/40/50, v/v/v/v). Subsequently, blood samples per mouse were collected at 0.25, 0.5, 1, 2, 4, 8, 24 h for p.o.-treated groups and 0.05, 0.25, 0.75, 2, 4, 6, 8, 24 h for i.v.-treated groups. All samples were centrifuged at 12,000 rpm for 3 min, and the plasma was harvested. Aliquots of plasma samples were stored at −80 °C until analysis. The selected compounds' serum concentrations were determined by liquid chromatography/tandem mass spectrometry (LC–MS–MS). Pharmacokinetic parameters were determined from the selected compounds' serum concentrations by noncompartmental methods using WinNonLin professional version 4.1 (Pharsight Corp., Mountain View, CA).

[1] = Histological analysis of liver and adipose tissue; assay type: in vivo, mouse; conditions: DIO and db/db mice, 20 mg/kg, 5 weeks
Description: Fig. 5 APC improves hyperlipidemia of obese mice. DIO mice were continuously i.p. injected with control vehicle or APC with indicated doses (APC, 0, 10, and 20 mg/kg) or vehicle (Ctrl) one time daily for 5 weeks (n = 5–9). a Body-weight curves of these mice (left). Area under curve (AUC) analysis of curves is shown as a scatter chart at the right. […] Data are represented as mean ± SEM. *P < 0.05; **P < 0.01; P values were determined by one-way ANOVA followed Dunnett’s multiple comparisons test. The triglyceride (TG) contents in the serum (c) and liver (d) of these mice. The contents of (e) total cholesterol (TC), LDL cholesterol (LDL-C), and HDL cholesterol (HDL-C), (f) VLDL-C, and (g) nonesterified fatty acid (NEFA) in the serum of these mice. h The contents of hepatic NEFA and (i) glycerol in these mice, which were normalized by hepatic protein levels as determined by BCA assay. Data are represented as mean ± SEM (n = 5–6). *P < 0.05; **P < 0.01; P values were determined by one-way ANOVA followed Dunnett’s multiple comparisons test. j Histological analysis of liver and epididymis fat (WAT) from DIO mice treated with APC (20 mg/kg) or vehicle for 5 weeks. Tissues were stained with hematoxylin and eosin. Scale bars represent 100 μm. […]

[2] = male, mouse, plasma, iv, i.v. 2 mg/kg
[3] = male, mouse, plasma, po, p.o. 20 mg/kg

## CC(C)=CCc1cc(C=CC(=O)O)cc(CC=C(C)C)c1O [APC, 3,5-diprenyl-4-hydroxycinnamic acid]
Pharmacokinetic studies; p.o. 20 mg/kg vs i.v. 2 mg/kg
  Fpo: 14.4%
Pharmacokinetic studies; p.o. 20 mg/kg, 20 mg/kg
  T1/2: 3.29 h
Pharmacokinetic studies; male, mouse, plasma, iv, 2 mg/kg, i.v. 2 mg/kg
  half-life: 353 min
Pharmacokinetic studies; male, mouse, plasma, po, 20 mg/kg, p.o. 20 mg/kg
  half-life: 127 min
Pharmacokinetic studies; [2]
  AUC(0-t): 428 ng·h/mL
  MRT: 2.46 h
  clearance: 78 mL/min/kg
Pharmacokinetic studies; [3]
  AUC(0-t): 616 ng·h/mL
  Cmax: 510 ng/mL
  MRT: 4.33 h
  Tmax: 15 min
[1]
  sizes of lipid droplets in liver and adipose tissues: remarkably reduced

Reference: article PMC8752738, “A propolis-derived small molecule ameliorates metabolic syndrome in obese mice by targeting the CREB/CRTC2 transcriptional complex” (Nature Communications, 2022)
